According to PubChem BioAssay (NCI):
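Test compounds were applied to cells in 96-well plates for 48 hours at 5 doses. The concentration for 50% growth inhibition is given as GI50. TGI: total growth inhibition.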

Key:
Test in all cases: NCI anticancer screen, dose series, 48 h
HOP-62 NSCLC = test system: HOP-62 NSCLC
HOP-92 NSCLC = test system: HOP-92 NSCLC
KM12 colon = test system: KM12 colon
OVCAR-4 ovarian = test system: OVCAR-4 ovarian
SF-295 CNS = test system: SF-295 CNS
SK-MEL-2 melanoma = test system: SK-MEL-2 melanoma
U251 CNS = test system: U251 CNS
UACC-257 melanoma = test system: UACC-257 melanoma

Structure (SMILES) | TGI (HOP-62 NSCLC) [µM] | TGI (HOP-92 NSCLC) [µM] | TGI (KM12 colon) [µM] | TGI (OVCAR-4 ovarian) [µM] | TGI (SF-295 CNS) [µM] | TGI (SK-MEL-2 melanoma) [µM] | TGI (U251 CNS) [µM] | TGI (UACC-257 melanoma) [µM] | GI50 (HOP-62 NSCLC) [µM] | GI50 (HOP-92 NSCLC) [µM] | GI50 (OVCAR-4 ovarian) [µM] | GI50 (SF-295 CNS) [µM] | GI50 (SK-MEL-2 melanoma) [µM] | GI50 (U251 CNS) [µM] | GI50 (UACC-257 melanoma) [µM] | GI50 (KM12 colon) [µM]
Cc1c(-c2cnccn2)ssc1=S | 92 | 89.7 | > 100 | > 100 | > 95.1 | > 100 | > 100 | 38.1 | – | – | – | – | – | – | – | –
C=C(c1ccc(OC)c(/C=C/C(=O)c2ccc3c(c2)OCO3)c1)c1cc(OC)c(OC)c(OC)c1 | > 100 | > 100 | – | > 100 | > 100 | > 100 | 9.88 | > 100 | 4.16 | 1.78 | 3.93 | 4.14 | 4.25 | 2.54 | 6.69 | –
Cc1cc2c(C(=O)NC[C@H](C)c3ccccc3)c(O)c(O)cc2c(O)c1-c1c(C)cc2c(C(=O)NC[C@H](C)c3ccccc3)c(O)c(O)cc2c1O | 2.15 | 1 | 2.24 | 8.3 | 0.702 | 4.23 | 1.67 | 7.23 | 0.301 | 0.276 | 0.446 | 0.131 | 0.596 | 0.074 | 1.37 | 0.107
COc1ccc(C2(Cl)c3ccccc3N(c3ccccc3)c3ccccc32)cc1 | 2.76 | 7.13 | 5.54 | 2.81 | 1.85 | 1.85 | 1.29 | 3.67 | 0.411 | 1.88 | 0.447 | 0.301 | 0.377 | 0.0505 | 0.797 | 1.18
CCOC(=O)Cc1c(C)c2cc(C(=O)c3ccccc3)c(O)cc2oc1=O | > 100 | 58.8 | – | > 100 | > 100 | 40.2 | 74.2 | 80.1 | – | – | – | – | – | – | – | –
COc1cc2c(cc1OC(C)C)[C@H](c1ccc(Cl)cc1)N(c1ccc(N(C)CC3CCC(N4CCN(C)C(=O)C4)CC3)cc1)C(=O)C2 (stereo partly specified) | 9.64 | 4.85 | 9.11 | 9.85 | 5.46 | 12.1 | 8.44 | 6.92 | 4.19 | 1.98 | 2.99 | 2.16 | 5.87 | 3.34 | 1.4 | 3.13
O=C1NC(=C(Cl)Cl)/C(=N/S(=O)(=O)N2CCCCC2)N1 | 9.07 | 3.33 | 10.3 | 3.47 | 17.3 | 7.72 | 3.12 | 7.07 | 2.92 | 1.75 | 1.8 | 5.14 | 2.92 | 1.71 | 2.43 | 0.499
CCCCCCCCCCCCCCCC1=NCC[N+]1(CCO)CCO | 3.23 | – | 3.52 | 26.5 | 26.3 | 10.3 | 3.03 | 20.7 | 1.71 | – | 4.75 | 10.5 | 2.89 | 1.64 | 6.48 | 1.78
CC1Cc2c(Cl)ncnc2N(C)c2ccc(Cl)cc21 (stereo unspecified) | 11.1 | 0.986 | – | > 100 | > 100 | 0.836 | > 100 | 78.5 | 0.339 | 0.279 | 0.422 | 0.341 | 0.28 | 0.378 | 0.429 | –
O=C(O)CCNCC(=O)O | > 100 | > 100 | > 100 | – | > 100 | > 100 | > 100 | > 100 | – | – | – | – | – | – | – | –
COc1ccc(C(=O)C(CN(C)C)CN(C)C)cc1 | 32.9 | 9.84 | 27.3 | – | 52.2 | 36.8 | 34.1 | 8.48 | 17.8 | 2.4 | – | 21.2 | 16.7 | 14.2 | 2.14 | 11.9
Cc1cc2nc(NCCN)n(Cc3ccc(F)c(Cl)c3)c2cc1C | 28.5 | 14.3 | 18.6 | 28.3 | 26.1 | 34 | 25.1 | – | 14.2 | 2.35 | 14 | 12.8 | 19.1 | 12.3 | – | 5.28
O=C(CSc1nc2c(n1Nc1ccccc1)-c1ccccc1SC2)Nc1nc(-c2ccc(Cl)cc2)cs1 | 34 | 71 | > 100 | – | 33.5 | > 100 | 88.2 | > 100 | 14 | 11.6 | – | 11.3 | 37.2 | 9.91 | > 100 | > 100
OCC1C(OCc2ccccc2)C(OCc2ccccc2)C(OCc2ccccc2)CN1Cc1ccccc1 (stereo unspecified) | > 100 | 44.8 | > 100 | > 100 | > 100 | – | > 100 | 81 | – | – | – | – | – | – | – | –
COc1cc(/C=C2\CC3C4CC=C5C[C@@H](OC(C)=O)CC[C@]5(C)C4CC[C@]3(C)C2=O)ccc1OCCN1CCCCC1 (stereo partly specified) | 25.9 | – | 4.27 | 49 | 5.08 | 28.4 | 8.26 | > 100 | 12.1 | – | 15.1 | 2.41 | 10.1 | 2.41 | 3.85 | 1.99
C[C@@H](Oc1cc(-n2cnc3ccc(OC4CCN(C)CC4)cc32)sc1C(N)=O)c1ccccc1Cl | 3.29 | 2.78 | 2.97 | 9.09 | 4.34 | – | 4.13 | 5.4 | 0.0166 | 0.0387 | 1.62 | 0.0207 | – | 0.0155 | 0.0249 | 0.00886
OC(CNc1ccnc2cc(Cl)ccc12)CNc1ccnc2cc(Cl)ccc12 | 14.7 | 19.1 | – | 3.34 | 3.56 | – | – | 3.49 | 3.17 | 4.22 | 1.64 | 1.82 | – | – | 1.87 | –
O=C(O)CSc1n[nH]c(=O)[nH]c1=O | > 100 | – | > 100 | > 100 | > 100 | > 100 | > 100 | – | – | – | – | – | – | – | – | –
